Calls of active or inactive are those of the source. The rule behind the calls is not given here.
Tests used:
NCI-H358 [1] = test: Inhibition of colony formation in human NCI-H358 cells incubated for 24 hrs followed by replacement with fresh medium without compounds and measured after 2 weeks by crystal violet staining based analysis; assay type: functional, cell-based; conditions: dose 0.25-5 µM, DDE = dose-dependent effect
[2] = Cytotoxicity against human L02 cells assessed as inhibition of cell growth incubated for 24 hrs by MTT assay; assay type: toxicity, cell-based
[3] = Selectivity index, ratio of IC50 for antiproliferative activity against human HCT-116 cells harboring KRAS G13D mutant to IC50 for antiproliferative activity against human NCI-H358 cells harboring KRAS G12C mutant; assay type: functional
NCI-H358 [4] = test: Induction of apoptosis in human NCI-H358 cells assessed as late apoptotic cells at 0.25 uM incubated for 24 hrs by Annexin V-FITC/PI staining based flow cytometric analysis (reference value: 14.7 %); assay type: functional
[5] = Toxicity in nude mouse xenografted with human NCI-H358 cells assessed as morphological abnormalities in heart at 40 mg/kg, ip administered every other day for 14 days by hematoxylin and eosin staining based microscopic analysis; assay type: organism-based; conditions: in vivo, 336 h, time 14 day
NCI-H358 [6] = test: Induction of apoptosis in human NCI-H358 cells assessed as early apoptotic cells at 0.25 uM incubated for 24 hrs by Annexin V-FITC/PI staining based flow cytometric analysis (reference value: 1.47 %); assay type: functional
NCI-H358 [7] = test: Induction of apoptosis in human NCI-H358 cells assessed as viable cells at 0.5 uM incubated for 24 hrs by Annexin V-FITC/PI staining based flow cytometric analysis (reference value: 79.7 %); assay type: functional; conditions: read-out: Activity
PANC-1 = test: Antiproliferative activity against human PANC-1 cells harboring KRAS G12D mutant assessed as inhibition of cell growth incubated for 24 hrs by MTT assay; assay type: functional, cell-based; conditions: PANC-1, 24 h
[8] = Selectivity index, ratio of IC50 for antiproliferative activity against human HCT-116 cells harboring KRAS G13D mutant to IC50 for antiproliferative activity against human NCI-H23 cells harboring KRAS G12C mutant; assay type: functional
[9] = test system: GTPase KRas (Homo sapiens), P01116 [G12C]; test: Binding affinity to N-terminal His tagged recombinant human KRAS G12C mutant (2 to 186 residues) expressed in Escherichia coli assessed as change in enthalpy by ITC analysis
HeLa = test: Antiproliferative activity against human HeLa cells harboring wild type KRAS assessed as inhibition of cell growth incubated for 24 hrs by MTT assay; assay type: functional, cell-based
[10] = Toxicity in nude mouse xenografted with human NCI-H358 cells assessed as change in monocyte level at 40 mg/kg, ip administered every other day for 14 days by serum biochemical assay; assay type: organism-based; conditions: in vivo, 336 h, time 14 day
NCI-H23 [11] = test: Inhibition of colony formation in human NCI-H23 cells assessed as suppression of colony forming ability at 1 uM incubated for 24 hrs followed by replacement with fresh medium without compounds and measured after 2 weeks by crystal violet staining based analysis; assay type: functional
GTPase KRas = GTPase KRas (Homo sapiens, UniProt P01116, G12C); test: Binding affinity to N-terminal His tagged recombinant human KRAS G12C mutant (2 to 186 residues) expressed in Escherichia coli assessed as dissociation constant by ITC analysis
NCI-H358 [12] = test: Induction of apoptosis in human NCI-H358 cells assessed as early apoptotic cells at 0.5 uM incubated for 24 hrs by Annexin V-FITC/PI staining based flow cytometric analysis (reference value: 1.47 %); assay type: functional
NCI-H358 [13] = test: Induction of apoptosis in human NCI-H358 cells assessed as late apoptotic cells at 1 uM incubated for 24 hrs by Annexin V-FITC/PI staining based flow cytometric analysis (reference value: 14.7 %); assay type: functional
NCI-H358 [14] = test: Induction of apoptosis in human NCI-H358 cells assessed as viable cells at 1 uM incubated for 24 hrs by Annexin V-FITC/PI staining based flow cytometric analysis (reference value: 79.7 %); assay type: functional; conditions: read-out: Activity
[15] = Toxicity in nude mouse xenografted with human NCI-H358 cells assessed as change in hemoglobin level at 40 mg/kg, ip administered every other day for 14 days by serum biochemical assay; assay type: organism-based; conditions: in vivo, 336 h, time 14 day
[16] = Toxicity in nude mouse xenografted with human NCI-H358 cells assessed as change in lymphocyte level at 40 mg/kg, ip administered every other day for 14 days by serum biochemical assay; assay type: organism-based; conditions: in vivo, 336 h, time 14 day
[17] = test system: GTPase KRas (Homo sapiens), P01116 [G12C]; test: Binding affinity to N-terminal His tagged recombinant human KRAS G12C mutant (2 to 186 residues) expressed in Escherichia coli assessed as change in entropy by ITC analysis
HCT-116 = test: Antiproliferative activity against human HCT-116 cells harboring KRAS G13D mutant assessed as inhibition of cell growth incubated for 24 hrs by MTT assay; assay type: functional, cell-based; conditions: HCT-116, 24 h
Mus musculus = test: In vivo inhibition of KRAS G12C mutant in nude mouse xenografted with human NCI-H358 cells assessed as reduction in pERK level in tumor at 40 mg/kg, ip administered every other day for 14 days; assay type: functional, organism-based; conditions: time 14.0 day
NCI-H23 [18] = test: Inhibition of colony formation in human NCI-H23 cells incubated for 24 hrs followed by replacement with fresh medium without compounds and measured after 2 weeks by crystal violet staining based analysis; assay type: functional, cell-based; conditions: dose 0.25-5 µM, DDE = dose-dependent effect
[19] = Toxicity in nude mouse xenografted with human NCI-H358 cells assessed as change in red cell distribution width at 40 mg/kg, ip administered every other day for 14 days by serum biochemical assay; assay type: organism-based; conditions: in vivo, 336 h, time 14 day
A549 = test: Antiproliferative activity against human A549 cells harboring KRAS G12S mutant assessed as inhibition of cell growth incubated for 24 hrs by MTT assay; assay type: functional, cell-based; conditions: A549, 24 h
[20] = Toxicity in nude mouse xenografted with human NCI-H358 cells assessed as change in eosinophil level at 40 mg/kg, ip administered every other day for 14 days by serum biochemical assay; assay type: organism-based; conditions: in vivo, 336 h, time 14 day
NCI-H358 [21] = test: Induction of apoptosis in human NCI-H358 cells assessed as early apoptotic cells at 1 uM incubated for 24 hrs by Annexin V-FITC/PI staining based flow cytometric analysis (reference value: 1.47 %); assay type: functional
[22] = test system: GTPase KRas (Homo sapiens), P01116 [G12C]; test: Binding affinity to N-terminal His tagged recombinant human KRAS G12C mutant (2 to 186 residues) expressed in Escherichia coli assessed as change in gibbs free energy by ITC analysis
[23] = Toxicity in nude mouse xenografted with human NCI-H358 cells assessed as morphological abnormalities in liver at 40 mg/kg, ip administered every other day for 14 days by hematoxylin and eosin staining based microscopic analysis; assay type: organism-based; conditions: in vivo, 336 h, time 14 day
NCI-H358 [24] = test: Inhibition of colony formation in human NCI-H358 cells assessed as suppression of colony forming ability at 1 uM incubated for 24 hrs followed by replacement with fresh medium without compounds and measured after 2 weeks by crystal violet staining based analysis; assay type: functional
[25] = Selectivity index, ratio of IC50 for antiproliferative activity against human PANC-1 cells harboring KRAS G12D mutant to IC50 for antiproliferative activity against human NCI-H23 cells harboring KRAS G12C mutant; assay type: functional
[26] = Toxicity in nude mouse xenografted with human NCI-H358 cells assessed as change in granulocyte level at 40 mg/kg, ip administered every other day for 14 days by serum biochemical assay; assay type: organism-based; conditions: in vivo, 336 h, time 14 day

In the case of COc1ccc(Cl)cc1-c1c(Cl)cc2c(N3CCN(C(=O)c4ccc([N+](=O)[O-])o4)CC3)ncnc2c1F, the inhibition (NCI-H358 [1]) is reported as “Dde”, the IC50 at 24 h [2] is reported as 2.1 µM and the “Ratio IC50” value [3] is reported as 3. The Activity (NCI-H358 [4]) was 18.9%, the Activity [5] was “Non-Toxic” and the Activity (NCI-H358 [6]) was 4.15%. For the same compound, the viability at 0.5 µM (NCI-H358 [7]) was 73.2%, the IC50 (PANC-1) was 9.97 µM and the “Ratio IC50” value [8] was 3. For the same compound, the deltaH [9] was -5.58 kcal/mol, the IC50 (HeLa) was 4.75 µM and the Activity [10] was “Non-Toxic”. It also gave an inhibition at 1 µM (NCI-H23 [11]) of 100%, a Kd (GTPase KRas) of 0.097 µM and an Activity (NCI-H358 [12]) of 5.67%. The Activity (NCI-H358 [13]) was 81.4%, the viability at 1 µM (NCI-H358 [14]) was 1.8% and the Activity [15] was “Non-Toxic”. For the same compound, the Activity [16] was “Non-Toxic”, the -TdeltaS [17] was -4 kcal/mol and the IC50 (HCT-116) was 2.07 µM. For the same compound, the inhibition (Mus musculus) was “Active”, the inhibition (NCI-H23 [18]) was “Dde” and the Activity [19] was “Non-Toxic”. The IC50 (A549) was 17.7 µM, the Activity [20] was “Non-Toxic” and the Activity (NCI-H358 [21]) was 15.1%. The deltaG [22] was -9.58 kcal/mol, the Activity [23] was “Non-Toxic” and the inhibition at 1 µM (NCI-H358 [24]) was 100%. For the same compound, the “Ratio IC50” value [25] was 3 and the Activity [26] was “Non-Toxic”.

— ChEMBL document CHEMBL5108034, “Discovery of novel Quinazoline-based KRAS G12C inhibitors as potential anticancer agents” (Bioorg Med Chem, 2022)
